The test system of data set [1] is macrophages (Interleukin-1 release). Briefly: IL-1 released by macrophages (Elisa sandwich test on culture supernatant). It counts as cell-based. Conditions: 25 μg/ml. The text has this:
It is known, however, that several factors such as cytokines and growth factors play important roles in the process of wound healing. These factors include the epidermal growth factor (EGF), the fibroblastic growth factor (FGF), the platelet-derived growth factor (PDGF), and the beta transforming growth factor (beta-TGF). In addition to these factors, cytokines such as interleukin-l (IL-1), the tumor necrosis factor (TNF), and interleukin-6 (IL-6) also play important roles in the process of wound healing. These factors act by different methods, in combination with other materials, to induce proliferation of dermal and epidermal elements such as fibroblasts. […] Actually, IL-1 affects the differentiation, growth, and activity of many cellular types in the organism. Within the immune system, IL-1 acts as a second signal that is necessary to activate the IL-2 circuit by the activated T lymphocytes. It also potentiates the action of other cytokines. It contributes to the differentiation of B lymphocytes and to their production of immunoglobulins. It modifies vascular permeability by the release of mediators by the endothelial cells and induces the appearance at their surface of a factor that has a procoagulating activity. Owing to its proliferative effect on the fibroblasts, it intervenes in the repair phase.
To show the effect of activating macrophages by sophorolipids, an Elisa sandwich test was carried out on the supernatant of a culture medium that contained macrophages. […] A negative test was also used.

Data set [2] relates to keratinocyte culture (detachment of corneocytes). Put plainly: Desquamating test, detachment of corneocytes in vitro. It counts as cell-based. The text has this:
Variation coefficient CV is obtained as follows: [formula]
Actually, the therapeutic applications incidentally involve cosmetic applications.

The nature of a further data set: in vitro. The settings on record: keratinocyte culture.

From US5981497A, “Utilization of sophorolipids as therapeutically active substances or cosmetic products, in particular for the treatment of the skin” (Institut Francais du Petrole, priority 1995, dated 1999) come the findings set out here.

“Lipopolysaccharides [reference compound]”: in data set [1], the “Concentrations IL-1 released by macrophages” value is 421.61 pg/mL.
In turn, `CC(O)C(=O)O` (centres unmarked) [Lactic acid, lactic acid, reference compound] yielded a T60-T0 mean difference in data set [2] (10^-3M, p less than 0.001) of 2500 corneocytes/ml. For the same compound, the activity at 1000 µM in data set [2] (Keratinocyte, 10^-3M, read-out: %/TN, proportion of detached corneocytes relative to the negative test) was found to be 214%. The EC (2-fold corneocyte release) in data set [2] (Keratinocyte, read-out: T200 (concentration which causes a release of corneocytes twice that observed with the negative test)) was ~1000 µM. This compound displayed a viability at 1000 µM in “in vitro” of 99.5%.
